The nature of the series: photoluminescence quantum yield (fraction); solvent given as SMILES.

Regarding `O=S(=O)(c1ccc(-c2ccc(-c3nc4c5ccccc5c5ccccc5c4n3-c3ccccc3)cc2)cc1)c1ccc(-c2ccc(-c3nc4c5ccccc5c5ccccc5c4n3-c3ccccc3)cc2)cc1`, the photoluminescence quantum yield was found to be 0.847 (in C1CCOC1); 0.579 (in CC#N); 0.779 (in CC(C)=O); 0.81 (in CC(C)OC(C)C); 0.676 (in CCCCCC); 0.85 (in CCCCOCCCC). Also, the photoluminescence quantum yield turned out to be 0.102 (in CCN(CC)CC); 0.89 (in CCOC(C)=O); 0.992 (in CCOCC); 0.775 (in CN(C)C=O); 1 (in ClC(Cl)Cl); 0.824 (in ClCCl). Also, the photoluminescence quantum yield (in c1ccc2c(c1)c1ccccc1n2-c1ccc(-c2ccc(-n3c4ccccc4c4ccccc43)cc2)cc1) came out at 0.72.
Consider `CC1=CC(C)=[N+]2C1=C(c1c3ccccc3c(-c3ccccc3)c3ccccc13)c1c(C)cc(C)n1[B-]2(F)F`, for which the photoluminescence quantum yield runs as follows: (in CC#N) 0.007; (in CCCCCC) 0.9; (in CCO) 0.02; (in CN(C)C=O) 0.01; (in Cc1ccccc1) 0.79; (in ClCCl) 0.024.
Turning to `COc1ccc(/C=C/C2=C3CCc4ccccc4C3=[O+][B-](F)(F)O2)cc1`, the photoluminescence quantum yield (in ClCCl) was 0.04.
As for `CCn1c2ccsc2c2c3nsnc3c3c4sccc4n(CC)c3c21`, the photoluminescence quantum yield (in C1CCOC1) was found to be 0.68; the photoluminescence quantum yield (in CCOC(C)=O) worked out at 0.63; the photoluminescence quantum yield (in CN(C)C=O) came out at 0.42; the photoluminescence quantum yield (in Cc1ccccc1) was determined as 0.73; the photoluminescence quantum yield (in ClCCl) stood at 0.33.
Regarding `CC1(C)c2ccccc2N(c2ccc(C(=C(C#N)C#N)c3ccc(N4c5ccccc5C(C)(C)c5ccccc54)cc3)cc2)c2ccccc21`, where the note is “in Cc1ccccc1”, the photoluminescence quantum yield stood at 0.0171.
In the case of `O=Cc1ccc2nc(C#Cc3ccc(N(c4ccccc4)c4ccccc4)cc3)sc2c1`, the photoluminescence quantum yield (in Cc1ccccc1) was found to be 1.
`CCCCCn1c2cc(/C=C/c3ccc(N(c4ccccc4)c4ccccc4)cc3)ccc2c2ccc(/C=C/c3ccc(N(c4ccccc4)c4ccccc4)cc3)cc21`: where the note is “in Cc1ccccc1”, the photoluminescence quantum yield was 0.81.
On to `Cc1ccc2nc(-c3cccc4nc(C)[nH]c(=O)c34)[nH]c2c1`, for which the photoluminescence quantum yield (in CN(C)C=O) turned out to be 0.036.
As to `COc1nc(Nc2ccc3ccc4cccc5ccc2c3c45)nc(OC)n1`, the photoluminescence quantum yield is 0.24 (in CC#N), 0.57 (in CCCCOCCCC) and 0.02 (in CO).
Under “in CS(C)=O”, `COc1ccc2cc(-c3cc4ccc(OC)cc4oc3=O)oc2c1` yielded a photoluminescence quantum yield of 0.75.
Where the note is “in CC#N”, `COc1ccc(-c2csc(/C(C#N)=C/c3ccc(Cl)cc3Cl)n2)cc1` gave a photoluminescence quantum yield of 0.031.
As to `CC1=CC(C)=[N+]2C1=C(c1ccc(C(=O)OC3C[C@@H]4CC[C@]3(C)C4(C)C)cc1)c1c(C)cc(C)n1[B-]2(F)F` (stereo partly drawn), the photoluminescence quantum yield (in Cc1ccccc1) was 0.37.
Regarding `CC1(C)CCc2c(c3ccccc3c3nc4ccccc4nc23)O1`, the photoluminescence quantum yield was 0.05 (in C1CCCCC1); 0.1 (in C1CCOC1); 0.13 (in CN(C)C=O); 0.23 (in CO); 0.17 (in ClC(Cl)Cl); 0.12 (in c1ccccc1).
For `F[Si-](F)(c1ccccc1)(c1ccccc1)c1cccc2ccccc12`, the photoluminescence quantum yield (in C1CCOC1) turned out to be 0.061.
`Cc1ccc2nnn(-c3c(C#N)c4c(N)ncnc4n3[C@H]3C[C@H](O)[C@@H](CO)O3)c2c1` had a photoluminescence quantum yield (in CO) of 0.007.
Regarding `COc1ccc(C2=[N+]3C(=Nc4c(-c5ccccc5-c5ccc(C(C)(C)C)cc5)cc(-c5ccc(OC)cc5)n4[B-]3(F)F)c3c2c2cc(C(C)(C)C)ccc2c2ccccc32)cc1`, the photoluminescence quantum yield (in Cc1ccccc1) came to 0.38.
In turn, `N#Cc1c(-n2nnc3c2CCC2C(CC3)[C@@H]2CO)n([C@H]2C[C@H](O)[C@@H](CO)O2)c2ncnc(N)c12` (stereo partly drawn) yielded a photoluminescence quantum yield (in CO) of 0.014.
Under “in ClCCl”, `c1cnc(-c2c3ccccc3c(-c3ncccn3)c3ccccc23)nc1` showed a photoluminescence quantum yield of 0.79.
The molecule `c1ccc(-c2nc3ccccc3nc2-c2ccc(-n3c4ccccc4c4ccccc43)cc2)cc1` had a photoluminescence quantum yield (in Cc1ccccc1) of 0.32.
`F[B-]1(F)OC(c2ccc(C(F)(F)F)cc2)=Cc2c3ccccc3cc[n+]21` displayed a photoluminescence quantum yield (in ClC(Cl)Cl) of 0.026.
`c1ccc(-c2nc(-c3c[nH]c4ccccc34)n3ccccc23)cc1`: the photoluminescence quantum yield (in ClCCl) is 0.162.
Still for that read-out and setting: next, `CCN(CC)c1ccc2cc(-c3nc4cc(C(=O)Nc5cccc(OC)c5)ccc4o3)c(=O)oc2c1`: 0.21.
In the case of `COc1ccc2cc(C#Cc3ccc([N+](=O)[O-])cc3)ccc2c1`, the photoluminescence quantum yield came out at 0.025 (in C1CCOC1), 0.03 (in ClC(Cl)Cl) and 0.015 (in ClCCl).
`C(#Cc1cc2ccc3cccc4ccc(c1)c2c34)c1ccccc1` showed a photoluminescence quantum yield (in Cc1ccccc1) of 0.44.
In turn, `CN(C)c1ccc(C(=Cc2ccc(/C=C/c3ccc(C#N)cc3)cc2)c2ccc(N(C)C)cc2)cc1` came in with a photoluminescence quantum yield (in C1CCOC1) of 0.042.
Consider `Cc1cc(-c2cccc3ccccc23)cc(C)[o+]1`, for which the photoluminescence quantum yield (in ClCCl) was 0.22.
For the setting “in C1CCOC1”, `CCCCCOc1cc2oc(=O)c3c4occc4c4ccc5cccc6c(c1)c2c3c4c56` had a photoluminescence quantum yield of 0.45.
In the case of `c1ccc(N(c2ccccc2)c2ccc(-c3ccc4c(c3)C3(c5cc(-c6ccc(N(c7ccccc7)c7ccccc7)cc6)ccc5S4)c4ccccc4-c4ccccc43)cc2)cc1`, the photoluminescence quantum yield (in ClCCl) came out at 0.66.

Source of the values: the Deep4Chem optical property database.
